Source: publication PMC3150614 (Journal of medicinal chemistry, 2011)

How the values were obtained:
[1] = target: T1, Plasmodium falciparum arginase (PFA) (Plasmodium falciparum, UniProt Q8I384); assay type: biochemical; conditions: racemic mixtures
T1 sequence (Q8I384 1-411): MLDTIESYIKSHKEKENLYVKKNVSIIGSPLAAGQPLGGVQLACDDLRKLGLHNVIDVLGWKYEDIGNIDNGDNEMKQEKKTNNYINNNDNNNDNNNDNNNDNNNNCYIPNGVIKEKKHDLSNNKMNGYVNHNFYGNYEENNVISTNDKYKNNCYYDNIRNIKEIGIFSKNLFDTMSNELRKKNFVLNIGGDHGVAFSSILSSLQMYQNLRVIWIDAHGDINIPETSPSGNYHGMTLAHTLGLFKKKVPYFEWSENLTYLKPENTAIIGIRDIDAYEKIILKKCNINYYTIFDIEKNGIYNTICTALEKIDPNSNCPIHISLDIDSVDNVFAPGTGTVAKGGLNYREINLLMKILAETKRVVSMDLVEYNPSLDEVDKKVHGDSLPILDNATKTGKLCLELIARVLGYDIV

human arginase I (HAI) = target: T2, human arginase I (HAI) (Homo sapiens, UniProt P05089); assay: Surface plasmon resonance binding to immobilized HAI; conditions: based on Kd, racemic mixtures
T2 sequence (P05089 1-322): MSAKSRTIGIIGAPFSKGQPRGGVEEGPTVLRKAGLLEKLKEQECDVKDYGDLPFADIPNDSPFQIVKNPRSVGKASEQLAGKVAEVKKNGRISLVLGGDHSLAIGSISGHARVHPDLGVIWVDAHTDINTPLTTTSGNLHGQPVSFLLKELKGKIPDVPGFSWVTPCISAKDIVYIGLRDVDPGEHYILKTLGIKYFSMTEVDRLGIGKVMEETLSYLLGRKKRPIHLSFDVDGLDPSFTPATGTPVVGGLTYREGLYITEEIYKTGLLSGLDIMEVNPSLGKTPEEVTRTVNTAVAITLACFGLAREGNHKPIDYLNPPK

Compound	fold weaker inhibitory potency against PFA than ABH, based on Ki [1] [fold]	fold less tight binding to HAI compared with ABH (human arginase I (HAI)) [fold]
NC(CCCCB(O)O)(C(=O)O)C(F)F (stereo not shown) [FABH, 2-Amino-6-borono-2-(difluoromethyl)hexanoic acid]	200	1889
CC(N)(CCCCB(O)O)C(=O)O (stereo not shown) [MABH, 2-Amino-6-borono-2-methylhexanoic acid]	26	49
